Source: patent US20220347260A1, “Combination of An Agonist Anti-PD-1 Antibody With a GnRH Agonist or Antagonist to Treat Cancer” (Debiopharm International SA, priority 2017, published 2022)

Key:
[1] = Phase I study Debio 8200-IMM-101, Patient A: serum testosterone levels; assay type: in vivo, human; details: baseline Day 1 15.7 nmol/L, castrate range <1.735 nmol/L
Procedure: The study involves 3 to 12 treatment cycles (depending on individual responses) of 28 days each. Patients receive triptorelin embonate (pamoate) 3.75 mg one-month formulation i.m. on day 1 of each 28-day cycle and nivolumab (Opdivo®) at 3 mg/kg body weight i.v. (1-hour infusion) on days 1 and 15 of each cycle. On day 1 of each cycle, triptorelin is administered prior to nivolumab. In addition, patients take bicalutamide 50 mg p.o. once daily for 28 days throughout cycle 1 only, to counteract the initial testosterone “flare” induced by triptorelin.
On 12 Jun. 2018 the patient was enrolled in the protocol Debio 8200-IMM-101 and received the first injections of triptorelin -anti-androgen bicalutamide was added for 28 days- and anti-PD-1 molecule nivolumab.
As expected due to triptorelin treatment, the serum testosterone levels of the patient decreased from a baseline (Day 1) level of 15.7 nmol/L on 12 Jun. 2018 to a very low castrate level of 0.6 nmol/L four weeks later 10 Jul. 2018 (Day 29), and have remained in the castrate range (i.e. <1.735 nmol/L) until the last value available to date of 0.69 nmol/L on 29 Oct. 2018 (Day 141).

[2] = test system: melanoma; details: melanoma patients in phase II or III trials; in some cases for more than ten years; cited from earlier work
[3] = test system: melanoma metastasis in the pancreas; assay: Patient A: prior pembrolizumab treatment, tumor response by PET-CT; assay type: in vivo, human
Procedure: A person (at screening on 23 May 2018) […] had been operated on 26 Sep. 2016 for left lung lobectomy for melanoma metastasis of unknown origin. On 21 Aug. 2017, biopsy of PET-CT (Positron emission tomography—computed tomography) detected a new melanoma metastasis in the pancreas. From 27 Sep. 2017 until 13 Mar. 2018 (last administration at Cycle 9) they were treated with anti-PD-1 molecule pembrolizumab. On 12 Dec. […] However, on 30 Mar. […] On 23 May 2018, the size of this unique pancreatic metastasis was 34 mm on CT-scan.

CC(C)C[C@H](NC(=O)[C@@H](Cc1c[nH]c2ccccc12)NC(=O)[C@H](Cc1ccc(O)cc1)NC(=O)[C@H](CO)NC(=O)[C@H](Cc1c[nH]c2ccccc12)NC(=O)[C@H](Cc1c[nH]cn1)NC(=O)[C@@H]1CCC(=O)N1)C(=O)N[C@@H](CCCNC(=N)N)C(=O)N1CCC[C@H]1C(=O)NCC(N)=O [triptorelin, pyroGlu-His-Trp-Ser-Tyr-D-Trp-Leu-Arg-Pro-Gly-NH2]
serum testosterone level ([1]; Day 29 (10 Jul. 2018)): 0.6 nmol/L
serum testosterone level ([1]; Day 141 (29 Oct. 2018)): 0.69 nmol/L

Ipilimumab: fully human IgG1 CTLA-4-blocking monoclonal antibody from Bristol-Myers Squibb
durable survival, patients [2]: about 20%

pembrolizumab: humanized IgG4 monoclonal anti-PD-1 antibody from Merck
tumor response ([3]; 12 Dec. 2017, pembrolizumab from 27 Sep. 2017 until 13 Mar. 2018): Partial Response (PR)
tumor response ([3]; 30 Mar. 2018, PET-CT, after Cycle 9 of pembrolizumab): progression (PD)
